US20250041292A1, “METHODS FOR TREATING PRIMARY IMMUNODEFICIENCY” (X4 Pharmaceuticals, Inc., priority 2021, published 2025)
Entries after “also recorded” stand apart in the source; their conditions may differ.

Assays:
[1] = tested on: WHIM mice; details: gavaged daily 100 mg/kg for 1 or 3 weeks; cited from earlier work
[2] = mouse, in vivo; cited from earlier work
[3] = tested on: CVID B cells; experiment: Chemotaxis assay: PBMCs from a patient with CVID due to NFKB1 mutation; type: cell-based, human
Method: PBMCs from patients or healthy donors were resuspended in chemotaxis buffer (RPMI 1640 media containing 20 mM HEPES, L-glutamine, and 0.5% BSA) at 2.0×10^6 cells/mL. […] Chemotaxis was assayed immediately after treatment with drug by placing 1.0×10^5 cells in 100 μL in the upper chamber of a Transwell 24-well plate separated by a 6.5 mm insert with 3 μm pores (Corning Life Sciences, Corning, NY, USA) from the lower chamber containing 600 μL of buffer with the indicated concentration of CXCL12. After incubation for 2.5 hours at 37° C. in a 5% CO2 incubator, the cells that migrated into the lower chamber were collected by centrifugation and resuspended in the assay buffer. Cells were blocked using Human TruStain FcX (BioLegend, Inc) for 10 minutes at RT, and subsequently B lymphocyte subtyping was performed (Alexa Fluor® 488 Mouse anti-human CD19 IgG1, κ, HIB19, BioLegend, Cat #302219). A fixed number of flow cytometry counting beads (Precision Count Beads; BioLegend) were added to each sample.
Both migrated cells and counting beads were counted by flow cytometry (CytoFLEX). Data were analyzed using FCS Express software, and the total number of migrated cells was calculated, according to the counted and total number of beads present in the sample. Results are presented as percentage of migrated B cells out of the total number of B cells placed in the chemotaxis chamber.

[4] = tested on: circulating white blood cells; details: 400-mg single-dose subject; cited from earlier work
[5] = tested on: peripheral WBC counts and subsets; experiment: Phase 1/2 trial of mavorixafor in combination with axitinib in advanced ccRCC: peripheral WBC counts; type: in vivo, human; details: mavorixafor 400 mg QD + axitinib
[6] = tested on: peripheral WBC counts and subsets; experiment: Phase 1b trial of mavorixafor in combination with ibrutinib in Waldenstrom's macroglobulinemia: peripheral WBC counts; type: in vivo, human; details: WM, interim analysis
[7] = tested on: peripheral WBC counts and subsets; experiment: Long-term extension of phase 2 trial of mavorixafor in WHIM syndrome: WBC counts and infection rate; details: WHIM syndrome phase 2 extension
[8] = tested on: peripheral WBC counts and subsets; experiment: Phase 1b trial of mavorixafor in combination with nivolumab in metastatic ccRCC: peripheral WBC counts; type: in vivo, human
[9] = after 6 months' treatment (n=20)
[10] = after 6 months' (n=5) treatment
[11] = compared to screening values, after 4 weeks (n=8)
[12] = mavorixafor 300 or 400 mg QD, after 6 months' (n=5) treatment

For `Cc1cccnc1[C@@H]1CCC[C@H](c2nc3cccc(N4CCN(C)CC4)n3c2CO)N1C`, the “IL-7 production and B cell development” value [1] is listed as “restored IL-7 production and B cell development” and the oral bioavailability [2] is listed as “orally bioavailable”.

In the case of mavorixafor, the “mavorixafor concentration effectively neutralizing the chemotaxis” value ([3]; CVID B cells cultured with 10 nm CXCL12, FIG. 1C) is listed as 0.1 µM, the “effect on enhanced chemotaxis toward CXCL12” value ([3]; CVID patient B cells, FIG. 1C) is listed as “dose-dependent normalization effect on chemotaxis; also recorded: normalizes enhanced chemotaxis” and the “increase in the number of circulating white blood cells (Leukocytosis)” value [4] is listed as 2.9 fold above baseline. For the same compound, the ALC ([5]; after 4 weeks (n=49)) was 143 % of baseline, the AMC ([5]; after 4 weeks (n=49)) was 182 % of baseline and the ANC ([5]; after 4 weeks (n=49)) was 158 % of baseline. The “total WBC count” value ([5]; after 4 weeks (n=49)) was 153 % of baseline, the ALC [5, 9] was 139 % of baseline and the AMC [5, 9] was 166 % of baseline. The ANC [5, 9] was 171 % of baseline, the “total WBC count” value [5, 9] was 159 % of baseline and the ALC [6, 10] was 106 % of baseline. The AMC [6, 10] was 172 % of baseline, the ANC [6, 10] was 192 % of baseline and the “total WBC count” value [6, 10] was 163 % of baseline. The ALC [6, 11] was 219 % of baseline, the AMC [6, 11] was 186 % of baseline and the ANC [6, 11] was 170 % of baseline. The “total WBC count” value [6, 11] was 192 % of baseline, the annualized infection rate ([7]; after 40 months, baseline 5.6 (SD±3.13) events) was 2.2 (SD±0.93) events and the ALC [7, 12] was 239 % of baseline. The AMC [7, 12] was 486 % of baseline, the ANC [7, 12] was 652 % of baseline and the “total WBC count” value [7, 12] was 339 % of baseline. For the same compound, the ALC ([8]; after 4 weeks (n=9)) was 141 % of baseline, the AMC ([8]; after 4 weeks (n=9)) was 179 % of baseline and the ANC ([8]; after 4 weeks (n=9)) was 143 % of baseline. For the same compound, the “total WBC count” value ([8]; after 4 weeks (n=9)) was 146 % of baseline, the ALC ([8]; after 6 months (n=2)) was 152 % of baseline and the AMC ([8]; after 6 months (n=2)) was 191 % of baseline. The ANC ([8]; after 6 months (n=2)) was 136 % of baseline and the “total WBC count” value ([8]; after 6 months (n=2)) was 147 % of baseline.
